Calls of active or inactive are those of the source. The rule behind the calls is not given here.
Key:
MCF7 [1] = assay: Cytotoxicity in human MCF7 cells assessed as reduction in cell viability incubated for 48 hrs by MTT assay; format: functional, cell-based; details: MCF7, 48 h
A549 = assay: Cytotoxicity in human A549 cells assessed as reduction in cell viability incubated for 48 hrs by MTT assay; format: functional, cell-based; details: A549, 48 h
MDA-MB-231 = assay: Cytotoxicity in human MDA-MB-231 cells assessed as reduction in cell viability incubated for 48 hrs by MTT assay; format: functional, cell-based; details: MDA-MB-231, 48 h
DU-145 = assay: Cytotoxicity in human DU145 cells assessed as reduction in cell viability incubated for 48 hrs by MTT assay; format: functional, cell-based; details: DU-145, 48 h
B16-F10 = assay: Cytotoxicity in mouse B16/F10 cells assessed as reduction in cell viability incubated for 48 hrs by MTT assay; format: functional, cell-based; details: B16-F10, 48 h
MCF7 [2] = assay: Induction of apoptotic nuclear morphological changes in human MCF7 cells incubated for 48 hrs by DAPI nuclear staining based fluorescence microscopy; format: functional, cell-based
MCF7 [3] = assay: Induction of apoptotic nuclear morphological changes in human MCF7 cells assessed as induction of cell shrinkage and round shape cells at 4 to 8 uM incubated for 48 hrs by DAPI nuclear staining based fluorescence microscopy; format: functional
MCF7 [4] = assay: Induction of apoptotic nuclear morphological changes in human MCF7 cells assessed as induction of horse shoe shaped nucleus at 12 uM incubated for 48 hrs by DAPI nuclear staining based fluorescence microscopy; format: functional, cell-based
MCF7 [5] = assay: Induction of apoptotic nuclear morphological changes in human MCF7 cells assessed as induction of DNA fragmentation at 12 uM incubated for 48 hrs by DAPI nuclear staining based fluorescence microscopy; format: functional, cell-based
MCF7 [6] = assay: Induction of apoptotic morphological changes in human MCF7 cells assessed as induction of membrane blebbing at 4 uM incubated for 48 hrs by AO/EB staining staining based fluorescence microscopy; format: functional, cell-based
MCF7 [7] = assay: Induction of apoptotic morphological changes in human MCF7 cells assessed as induction of membrane blebbing at 8 uM incubated for 48 hrs by AO/EB staining staining based fluorescence microscopy; format: functional, cell-based
MCF7 [8] = assay: Induction of apoptotic morphological changes in human MCF7 cells assessed as induction of DNA fragmentation at 8 uM incubated for 48 hrs by AO/EB staining staining based fluorescence microscopy; format: functional, cell-based
MCF7 [9] = assay: Induction of apoptotic morphological changes in human MCF7 cells assessed as induction of chromatin condensation at 8 uM incubated for 48 hrs by AO/EB staining staining based fluorescence microscopy; format: functional, cell-based
MCF7 [10] = assay: Induction of late apoptosis in human MCF7 cells at 12 uM incubated for 48 hrs by AO/EB staining staining based fluorescence microscopy; format: functional, cell-based
MCF7 [11] = assay: Induction of cell cycle arrest in human MCF7 cells assessed as accumulation at subG1 phase at 4 uM incubated for 48 hrs by propidium iodide staining based flow cytometry (reference value: 0.88%); format: functional
MCF7 [12] = assay: Induction of cell cycle arrest in human MCF7 cells assessed as accumulation at G0/G1 phase at 4 uM incubated for 48 hrs by propidium iodide staining based flow cytometry (reference value: 53.01%); format: functional
MCF7 [13] = assay: Induction of cell cycle arrest in human MCF7 cells assessed as accumulation at S phase at 4 uM incubated for 48 hrs by propidium iodide staining based flow cytometry (reference value: 12.28%); format: functional
MCF7 [14] = assay: Induction of cell cycle arrest in human MCF7 cells assessed as accumulation at G2/M phase at 4 uM incubated for 48 hrs by propidium iodide staining based flow cytometry (reference value: 32.51%); format: functional
MCF7 [15] = assay: Induction of cell cycle arrest in human MCF7 cells assessed as accumulation at subG1 phase at 8 uM incubated for 48 hrs by propidium iodide staining based flow cytometry (reference value: 0.88%); format: functional
MCF7 [16] = assay: Induction of cell cycle arrest in human MCF7 cells assessed as accumulation at G0/G1 phase at 8 uM incubated for 48 hrs by propidium iodide staining based flow cytometry (reference value: 53.01%); format: functional
MCF7 [17] = assay: Induction of cell cycle arrest in human MCF7 cells assessed as accumulation at S phase at 8 uM incubated for 48 hrs by propidium iodide staining based flow cytometry (reference value: 12.28%); format: functional
MCF7 [18] = assay: Induction of cell cycle arrest in human MCF7 cells assessed as accumulation at G2/M phase at 8 uM incubated for 48 hrs by propidium iodide staining based flow cytometry (reference value: 32.51%); format: functional
MCF7 [19] = assay: Inhibition of colony formation in human MCF7 cells assessed as reduction in colony count incubated for 24 hrs by crystal violet staining based clonogenic cell reproduction assay; format: functional
MCF7 [20] = assay: Induction of apoptosis in human MCF7 cells assessed as viable cells level at 4 uM incubated for 48 hrs by Annexin V and propidium iodide staining based flow cytometry (reference value: 80.6%); format: functional
MCF7 [21] = assay: Induction of apoptosis in human MCF7 cells assessed as early apoptosis cells level at 4 uM incubated for 48 hrs by Annexin V and propidium iodide staining based flow cytometry (reference value: 11.54%); format: functional
MCF7 [22] = assay: Induction of apoptosis in human MCF7 cells assessed as late apoptosis cells level at 4 uM incubated for 48 hrs by Annexin V and propidium iodide staining based flow cytometry (reference value: 7.4%); format: functional
MCF7 [23] = assay: Induction of apoptosis in human MCF7 cells assessed as necrotic cells level at 4 uM incubated for 48 hrs by Annexin V and propidium iodide staining based flow cytometry (reference value: 0.46%); format: functional
MCF7 [24] = assay: Induction of apoptosis in human MCF7 cells assessed as viable cells level at 8 uM incubated for 48 hrs by Annexin V and propidium iodide staining based flow cytometry (reference value: 80.6%); format: functional
MCF7 [25] = assay: Induction of apoptosis in human MCF7 cells assessed as early apoptosis cells level at 8 uM incubated for 48 hrs by Annexin V and propidium iodide staining based flow cytometry (reference value: 11.54%); format: functional
MCF7 [26] = assay: Induction of apoptosis in human MCF7 cells assessed as late apoptosis cells level at 8 uM incubated for 48 hrs by Annexin V and propidium iodide staining based flow cytometry (reference value: 7.4%); format: functional
MCF7 [27] = assay: Induction of apoptosis in human MCF7 cells assessed as necrotic cells level at 8 uM incubated for 48 hrs by Annexin V and propidium iodide staining based flow cytometry (reference value: 0.46%); format: functional
MCF7 [28] = assay: Induction of apoptosis in human MCF7 cells assessed as viable cells level at 12 uM incubated for 48 hrs by Annexin V and propidium iodide staining based flow cytometry (reference value: 80.6%); format: functional
MCF7 [29] = assay: Induction of apoptosis in human MCF7 cells assessed as early apoptosis cells level at 12 uM incubated for 48 hrs by Annexin V and propidium iodide staining based flow cytometry (reference value: 11.54%); format: functional
MCF7 [30] = assay: Induction of apoptosis in human MCF7 cells assessed as late apoptosis cells level at 12 uM incubated for 48 hrs by Annexin V and propidium iodide staining based flow cytometry (reference value: 7.4%); format: functional
MCF7 [31] = assay: Induction of apoptosis in human MCF7 cells assessed as necrotic cells level at 12 uM incubated for 48 hrs by Annexin V and propidium iodide staining based flow cytometry (reference value: 0.46%); format: functional
L132 = assay: Cytotoxicity in human L-132 cells assessed as reduction in cell viability incubated for 48 hrs by MTT assay; format: cell-based; details: L132, 48 h
[32] = Selectivity index, ratio of IC50 for cytotoxicity in human L-132 cells to IC50 for cytotoxicity in human MCF7 cells; format: toxicity, cell-based; details: L-132 cells and MCF7 cells, read-out: Ratio IC50
MCF7 [33] = assay: Induction of apoptosis in human MCF7 cells incubated for 48 hrs by Annexin V and propidium iodide staining based flow cytometry (reference value: 7.4%); format: functional, cell-based

Structure (SMILES): COc1cc(CN(C(=S)Nc2ccc(C)cc2)n2cnnc2)cc(OC)c1OC
- IC50 (MCF7 [1]): > 50 µM
- IC50 (A549): 22.8 µM
- IC50 (MDA-MB-231): > 50 µM
- IC50 (DU-145): 20.8 µM
- IC50 (B16-F10): 46.8 µM

Structure (SMILES): N#Cc1ccc(CN(C(=S)Nc2cc(C(F)(F)F)cc(C(F)(F)F)c2)n2cnnc2)cc1
- IC50 (MCF7 [1]): 7.22 µM
- IC50 (A549): 9.39 µM
- IC50 (MDA-MB-231): 9.28 µM
- IC50 (DU-145): 11.8 µM
- IC50 (B16-F10): 4.51 µM
- Activity (MCF7 [2]): Dose-dependent effect
- Activity (MCF7 [3]): Active
- Activity (MCF7 [4]): Active
- Activity (MCF7 [5]): Active
- Activity (MCF7 [6]): Active
- Activity (MCF7 [7]): Active
- Activity (MCF7 [8]): Active
- Activity (MCF7 [9]): Active
- Activity (MCF7 [10]): Active
- Activity (MCF7 [11]): 1.18%
- Activity (MCF7 [12]): 61.18%
- Activity (MCF7 [13]): 11.33%
- Activity (MCF7 [14]): 25.01%
- Activity (MCF7 [15]): 3.57%
- Activity (MCF7 [16]): 69.97%
- Activity (MCF7 [17]): 10.13%
- Activity (MCF7 [18]): 14.34%
- inhibition (MCF7 [19]): Dose-dependent effect
- Activity (MCF7 [20]): 62.98%
- Activity (MCF7 [21]): 9.63%
- Activity (MCF7 [22]): 24.61%
- Activity (MCF7 [23]): 2.78%
- Activity (MCF7 [24]): 62.98%
- Activity (MCF7 [25]): 9.63%
- Activity (MCF7 [26]): 24.61%
- Activity (MCF7 [27]): 2.78%
- Activity (MCF7 [28]): 44.86%
- Activity (MCF7 [29]): 7.53%
- Activity (MCF7 [30]): 38.35%
- Activity (MCF7 [31]): 9.26%
- IC50 (L132): 15.2 µM
- selectivity ratio [32]: 2
- Activity (MCF7 [33]): Dose-dependent effect

Structure (SMILES): Cc1ccc(NC(=O)N(Cc2ccccn2)n2cnnc2)cc1
- IC50 (MCF7 [1]): 38.9 µM
- IC50 (A549): 21.9 µM
- IC50 (MDA-MB-231): 39.5 µM
- IC50 (DU-145): 21.5 µM
- IC50 (B16-F10): 35.2 µM

Structure (SMILES): CC1CCC(NC(=O)N(Cc2ccccn2)n2cnnc2)CC1 (stereo not drawn)
- IC50 (MCF7 [1]): 34 µM
- IC50 (A549): 43.7 µM
- IC50 (MDA-MB-231): 33.2 µM
- IC50 (DU-145): 20.1 µM
- IC50 (B16-F10): 39.7 µM

Structure (SMILES): N#Cc1ccc(CN(C(=O)Nc2ccccc2)n2cnnc2)cc1
- IC50 (MCF7 [1]): > 50 µM
- IC50 (A549): > 50 µM
- IC50 (MDA-MB-231): > 50 µM
- IC50 (DU-145): > 50 µM
- IC50 (B16-F10): 34.7 µM

Structure (SMILES): Cc1ccsc1CN(C(=O)Nc1cccc(Cl)c1)n1cnnc1
- IC50 (MCF7 [1]): 31.2 µM
- IC50 (A549): 21.4 µM
- IC50 (MDA-MB-231): 40.3 µM
- IC50 (DU-145): 20.4 µM
- IC50 (B16-F10): > 50 µM

Structure (SMILES): COc1ccc(CN(C(=S)Nc2ccc(C)cc2)n2cnnc2)cc1OC
- IC50 (MCF7 [1]): > 50 µM
- IC50 (A549): 22.2 µM
- IC50 (MDA-MB-231): > 50 µM
- IC50 (DU-145): 26.3 µM
- IC50 (B16-F10): 29.9 µM

Structure (SMILES): O=C(NCc1ccccc1)N(Cc1ccccn1)n1cnnc1
- IC50 (MCF7 [1]): > 50 µM
- IC50 (A549): 22 µM
- IC50 (MDA-MB-231): > 50 µM
- IC50 (DU-145): 21.2 µM
- IC50 (B16-F10): 31 µM

Structure (SMILES): O=C(NC1CCCCC1)N(Cc1ccccn1)n1cnnc1
- IC50 (MCF7 [1]): 46.9 µM
- IC50 (A549): > 50 µM
- IC50 (MDA-MB-231): 44.1 µM
- IC50 (DU-145): > 50 µM
- IC50 (B16-F10): 35.8 µM

Structure (SMILES): COc1ccc(CN(C(=S)Nc2ccc(F)c(Cl)c2)n2cnnc2)cc1OC
- IC50 (MCF7 [1]): 30.1 µM
- IC50 (A549): 21 µM
- IC50 (MDA-MB-231): 27.9 µM
- IC50 (DU-145): 23.3 µM
- IC50 (B16-F10): 20.7 µM

Structure (SMILES): COc1ccc(OC)c(CN(C(=S)NC2CCCCC2)n2cnnc2)c1
- IC50 (MCF7 [1]): > 50 µM
- IC50 (A549): 21.5 µM
- IC50 (MDA-MB-231): > 50 µM
- IC50 (DU-145): 29.8 µM
- IC50 (B16-F10): 39.5 µM

Structure (SMILES): Cc1ccsc1CN(C(=O)Nc1ccccc1)n1cnnc1
- IC50 (MCF7 [1]): > 50 µM
- IC50 (A549): 22.1 µM
- IC50 (MDA-MB-231): > 50 µM
- IC50 (DU-145): > 50 µM
- IC50 (B16-F10): 31.1 µM

Structure (SMILES): COc1ccc(CN(C(=O)Nc2ccc(Cl)cc2)n2cnnc2)cc1OC
- IC50 (MCF7 [1]): > 50 µM
- IC50 (A549): 44.2 µM
- IC50 (MDA-MB-231): > 50 µM
- IC50 (DU-145): 20.4 µM
- IC50 (B16-F10): 42.2 µM
